From US20050049204A1, “Compounds for the treatment of flaviviridae infections” (priority 2003, published 2005)
Where two headings read alike, the source gives them in different places.

How the values were obtained:
[1] = tested on: HCV-replicon RNA-containing Huh7 cells (HCV RNA); test: HCV replicon assay: HCV RNA quantified by Q-RT-PCR after 96 h of compound exposure; assay type: cell-based, hepatitis C virus (HCV); conditions: for log reduction at 100 µM: read-out: Corrected HCV RNA log10 reduction at 100 μM; for log reduction at 10 µM: read-out: Corrected HCV RNA log10 reduction at 10 μM; for EC90: read-out: Corrected HCV RNA EC90; for specific inhibition of the replicon: RNR inhibitors tested
Description: (§1) Incubation times differed according to the type of experiment.

[2] = tested on: rRNA in HCV-replicon RNA-containing Huh7 cells; test: rRNA levels in HCV replicon cells (cellular toxicity), Q-RT-PCR after 96 h
Description: HCV replicon cells were seeded in the presence of test compound at approximately 10^3 cells per well in a 96-well plate and incubated for 96 hours. rRNA and HCV RNA were quantified by Q-RT-PCR. ●: HCV RNA levels; ◯: rRNA levels; ▾: HCV RNA levels after correction (=subtraction of rRNA) for cellular toxicity. […] The plots shown are the mean results of at least three independent experiments. EC90 values as given in Table 1 are read from the HCV curves corrected for cellular toxicity.
HCV-replicon RNA-containing Huh7 cells (Clone A cells; Apath, LLC, St. Louis, Mo.) were kept in exponential growth in DMEM media (high glucose, no pyruvate) containing 10% fetal bovine serum, 1× non-essential amino acids (100 units/ml), penicillin-streptomycin (100 μg/ml), glutamine (0.292 mg/ml), and G418 (1,000 μg/ml). Antiviral assays were performed in the same medium without G418. […] Cells were seeded in a 6-well plate at 10^5 cells per well. Candidate antiviral compounds were tested as described (Stuyver, et al. “A ribonucleoside analogue that blocks the replication of bovine viral diarrhea and hepatitis C viruses in culture” Antimicrob. Agents Chemother., January 2003, 47 (1), 244-254). Incubation times differed according to the type of experiment. At the end of the incubation step, cells were counted using the trypan-blue exclusion method, and total cellular RNA was isolated (Rneasy 96 kit, Qiagen, CA). Replicon RNA and an internal control (TaqMan Ribosomal RNA Control Reagents, Applied Biosystems, CA) were amplified in a single-step, multiplex RT-PCR protocol, as recommended by the manufacturer and as described (Stuyver, et al. “A ribonucleoside analogue that blocks the replication of bovine viral diarrhea and hepatitis C viruses in culture” Antimicrob. Agents Chemother., January 2003, 47 (1), 244-254).
Replicon cells were incubated in the absence or presence of these anti-metabolites for 96 hours, after which intracellular rRNA and HCV RNA levels were quantified (Table 1).

[3] = tested on: HCV replicon RNA in Huh7 cells; test: Reversal studies with natural nucleosides: HCV RNA; assay type: cell-based, hepatitis C virus (HCV); conditions: for log10 reduction HCV: no nucleoside
Description: as §1
(§2) Cells were incubated with the test compound and, simultaneously, the natural ribo- or 2′-deoxy nucleosides (adenosine, guanosine (G), cytidine (C), uridine (U), 2′-deoxycytidine (dC), 2′-deoxyuridine, thymidine, 2′-deoxyguanosine (dG), and 2′-deoxyadenosine) (Table 2).

[4] = tested on: rRNA in HCV replicon Huh7 cells; test: Reversal studies with natural nucleosides: rRNA; assay type: cell-based; conditions: for log10 reduction rRNA: no nucleoside
Description: as §1, §2

[5] = tested on: HCV replicon-containing Huh7 cell line; test: Dynamics of replicon cell growth (cell count) over a 7-day period; conditions: seven-day assay, tested at approximately EC90 value
[6] = Hepatitis C virus, Huh-7, 96 h, read from HCV curves corrected for rRNA reduction
[7] = 10 μM, 96 h, corrected by subtraction of rRNA
[8] = 96 h, corrected by subtraction of rRNA
[9] = 96 h, read from HCV curves corrected for rRNA reduction

| Molecule | log reduction at 100 µM ([1]; Hepatitis C virus, Huh-7, 96 h) | EC90 [1, 6] | Log10 RNA reduction (100 μM) rRNA [2] | Corrected HCV RNA log10 reduction at 10 μM [1, 7] | Corrected HCV RNA log10 reduction at 100 μM [1, 8] | EC90 ([1]; Hepatitis C virus, Huh-7, 96 h) | Log10 RNA reduction (100 μM) HCV ([1]; 96 h) | also measured |
| --- | --- | --- | --- | --- | --- | --- | --- | --- |
| NC(=O)NO [Hydroxy Urea, hydroxy urea] | -0.08 ± 0.16 | > 100 µM | 0.25 ± 0.20 log10 | – | – | – | – | log reduction at 10 µM ([1]; Hepatitis C virus, Huh-7, 10 μM, 96 h, corrected by subtraction of rRNA): 0.06 ± 0.04; specific inhibition of the replicon [1]: none |
| COc1c(C)c2c(c(O)c1C/C=C(\C)CCC(=O)O)C(=O)OC2 [MPA, mycophenolic acid] | 0.07 ± 0.47 | > 100 µM | 1.09 ± 0.28 log10 | 0.22 ± 0.01 log10 | – | – | – | – |
| CN(Cc1cnc2nc(N)nc(N)c2n1)c1ccc(C(=O)N[C@@H](CCC(=O)O)C(=O)O)cc1 [Methotrexate, methotrexate] | – | > 100 µM | 0.07 ± 0.10 log10 | 0.15 ± 0.01 log10 | 0.11 ± 0.09 log10 | – | – | – |
| NC(=O)c1ncn([C@@H]2O[C@H](CO)[C@@H](O)[C@H]2O)c1O [Mizoribine] | 0.08 ± 0.82 | > 100 µM | 0.21 ± 0.50 log10 | −0.14 ± 0.12 log10 | – | – | – | – |
| O=C(O)C[C@H](NC(=O)CP(=O)(O)O)C(=O)O [PALA, N-(phosphonoacetyl)-L-aspartate] | – | – | 0.48 ± 0.02 log10 | 1.18 ± 0.11 log10 | 1.30 ± 0.05 log10 | 7.6 µM | – | log10 reduction HCV including natural nucleoside ([3]; 100 μM + U at 50 μM): 0.14 ± 0.03 log10; log10 reduction HCV ([3]; 100 μM): 1.77 ± 0.02 log10; log10 reduction rRNA including natural nucleoside ([4]; 100 μM + U at 50 μM): −0.13 ± 0.10 log10; log10 reduction rRNA ([4]; 100 μM): 0.48 ± 0.02 log10; effect on cell growth [5]: minimal effect |
| Nc1ccn(C2OC(CO)C(O)C2=CF)c(=O)n1 (stereo not shown) [Tezacytabine, tezacytabine] | – | – | 1.78 ± 0.69 log10 | 0.63 ± 0.07 log10 | −0.19 ± 0.49 log10 | – | 1.59 ± 0.08 log10 | EC90 [1, 9]: > 100 µM; specific inhibition of the replicon [1]: none |
| NC(=O)c1csc([C@@H]2O[C@H](CO)[C@@H](O)[C@H]2O)n1 [Tiazofurin, tiazofurin] | – | – | 0.99 ± 0.35 log10 | – | −0.13 ± 0.37 log10 | > 100 µM | 0.86 ± 0.27 log10 | log reduction at 10 µM ([1]; Hepatitis C virus, Huh-7, 96 h): 0.04 ± 0.1 |
| Nc1ccn([C@@H]2O[C@H](CO)[C@@H](O)C2(F)F)c(=O)n1 [dFdC, difluorodeoxycytidine] | – | – | – | 1.32 ± 0.08 log10 | – | 0.17 µM | – | Corrected HCV RNA log10 reduction ([1]; dFdC tested at 50 μM, 96 h, corrected for rRNA): 1.29 ± 0.11 log10; Log10 RNA reduction rRNA ([2]; dFdC tested at 50 μM): 0.59 ± 0.05 log10; log10 reduction HCV including natural nucleoside ([3]; 1 μM + dC at 50 μM): 0.06 ± 0.00 log10; log10 reduction HCV ([3]; 1 μM): 1.89 ± 0.07 log10; log10 reduction rRNA including natural nucleoside ([4]; 1 μM + dC at 50 μM): 0.07 ± 0.02 log10; log10 reduction rRNA ([4]; 1 μM): 0.52 ± 0.03 log10 |
| Cyclopentyl-cytosine [CP-C] | – | – | 0.91 ± 0.13 log10 | 0.64 ± 0.10 log10 | 1.06 ± 0.26 log10 | – | 1.97 ± 0.38 log10 | EC90 [1, 9]: 25 µM; log10 reduction HCV including natural nucleoside ([3]; 20 μM + C at 50 μM): 0.11 ± 0.01 log10; log10 reduction HCV ([3]; 20 μM): 1.80 ± 0.07 log10; log10 reduction HCV including natural nucleoside ([3]; 100 μM + C at 50 μM): 0.32 ± 0.11 log10; log10 reduction HCV ([3]; 100 μM): 2.32 ± 0.08 log10; log10 reduction rRNA including natural nucleoside ([4]; 20 μM + C at 50 μM): 0.02 ± 0.00 log10; log10 reduction rRNA ([4]; 20 μM): 0.87 ± 0.08 log10; log10 reduction rRNA including natural nucleoside ([4]; 100 μM + C at 50 μM): 0.17 ± 0.01 log10; log10 reduction rRNA ([4]; 100 μM): 1.21 ± 0.02 log10 |
